Earlier results in patent publication US20180085319A1, “METHODS AND COMPOSITIONS FOR TREATING CANCER” (priority 2016, published 2018).

Tested on: anti-immunotoxin immune response

| Substance | prevention of anti-immunotoxin immune response in patients (B cell depletion) | effect on immune response to SS1P in mesothelioma patients (immunosuppressive treatment given with SS1P) |
| --- | --- | --- |
| Rituximab | ineffective in preventing anti-immunotoxin immune response |  |
| cyclophosphamide and pentostatin [cyclophosphamide and pentostatin (CP/PS)] |  | only delayed the response to the immunotoxin |
